Experimental data published in US20190192517A1, “TREATMENT OF SQUAMOUS CELL CARCINOMAS WITH INHIBITORS OF ERK” (Kura Oncology, Inc., priority 2016, published 2019).

Target: T1, ERK2 enzyme (Homo sapiens, UniProt P28482)
T1 construct: purchased Life Technologies
Experiment: Inhibition assay of ERK (Z'-LYTE kinase assay, Ser/Thr 3 peptide, 100 μM ATP)
Format: biochemical
Conditions: in vitro
Method: Example 9: Inhibition Assays of ERK. The inhibition of ERK activity by the compounds disclosed herein was determined using the Z′-LYTE kinase assay kit (Life Technologies) with a Ser/Thr 3 peptide substrate (Life Technologies) according to manufacturer's instructions. […] The IC50 values for the compounds were determined with 3-fold serial dilutions in duplicate. The compounds were first diluted in 1:3 dilutions in 100% DMSO at 100× the desired concentration, and then further diluted (1:25) in 20 mM HEPES buffer (Invitrogen) to make 4× solutions prior to adding to the enzyme solution. The final DMSO concentration in the assay was 1%. Final reaction volume was […] in 384-well plates. Kinase reactions were conducted for 1 hour followed by the assay development reaction (1 hour) in a 384 well plate format (20 μL/well).

T1 sequence (P28482 whole entry): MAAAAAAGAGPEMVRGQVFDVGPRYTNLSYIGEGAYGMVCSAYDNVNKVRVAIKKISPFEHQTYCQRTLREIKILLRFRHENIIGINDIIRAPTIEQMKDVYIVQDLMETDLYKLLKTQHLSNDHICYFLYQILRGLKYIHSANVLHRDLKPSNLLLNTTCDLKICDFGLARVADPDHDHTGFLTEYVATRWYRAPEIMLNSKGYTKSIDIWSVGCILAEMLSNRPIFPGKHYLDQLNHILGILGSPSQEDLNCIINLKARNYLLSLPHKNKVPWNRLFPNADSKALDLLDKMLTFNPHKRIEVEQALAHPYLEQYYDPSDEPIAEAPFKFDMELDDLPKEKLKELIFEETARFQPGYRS

Compound | IC50 [nM]
Cc1cc(-c2n[nH]c3cc4[nH]c(=O)c(C(C)c5ccccc5)cc4cc23)ccn1 (stereo not drawn) [Compound 22] | < 500
CCC(c1ccccc1)c1cc2cc3c(-c4ccnc(C)c4)n[nH]c3cc2[nH]c1=O (stereo not drawn) [Compound 64] | < 500
Cc1cc(-c2n[nH]c3cc4c(cc23)CN(C2CCCC2)C(=O)N4)cc(C)n1 [Compound 239] | < 500
Cc1cc(-c2n[nH]c3cc4[nH]c(=O)c(C(C)c5ccc(F)cc5)cc4cc23)ccn1 (stereo not drawn) [Compound 197] | < 500
Cc1cc(-c2n[nH]c3cc4c(cc23)CN(Cc2cccc(C(F)(F)F)c2)C(=O)N4)ccn1 [Compound 240] | < 500
Cc1cc(-c2n[nH]c3cc4c(cc23)CN([C@@H]2CCN(CC(F)(F)F)C2)C(=O)N4)cc(C)n1 [Compound 237] | < 500
CC(c1ccccc1)c1cc2cc3c(-c4cnn(C)c4)n[nH]c3cc2[nH]c1=O (stereo not drawn) [Compound 333] | < 500
Cc1cc(-c2n[nH]c3cc4c(cc23)CN([C@@H]2CN(CC(F)(F)F)C[C@H]2c2ccccc2)C(=O)N4)ccn1 [Compound 304] | < 500
Cc1cc(-c2n[nH]c3cc4c(cc23)CN([C@@H]2CN(C)C[C@H]2c2ccccc2)C(=O)N4)cc(C)n1 (racemic) [Compound 248] | < 500
CC(c1ccccc1)c1cc2cc3c(NC4CCOCC4)n[nH]c3cc2[nH]c1=O (stereo not drawn) [Compound 338] | < 500
Cc1cc(-c2n[nH]c3cc4[nH]c(=O)c(C5CCCN(Cc6ccccc6)C5)cc4cc23)ccn1 (stereo not drawn) [Compound 332] | < 500
O=C1Nc2cc3[nH]nc(-c4ccncc4)c3cc2CN1Cc1cccc(Cl)c1 [Compound 3] | < 500
Cc1cc(-c2n[nH]c3cc4c(cc23)CN(Cc2cccc(Cl)c2)C(=O)N4)ccn1 [Compound 4] | < 500
C=C(c1ccccc1)c1cc2cc3c(-c4ccnc(C)c4)n[nH]c3cc2[nH]c1=O [Compound 269] | < 500
Cc1cc(-c2n[nH]c3cc4c(cc23)CN([C@@H]2CN(CC(F)F)C[C@H]2c2ccccc2)C(=O)N4)ccn1 (racemic) [Compound 362] | < 500
Cc1cc(-c2n[nH]c3cc4c(cc23)CN(Cc2cc(F)cc(F)c2)C(=O)N4)cc(C)n1 [Compound 225] | < 500
Cc1cc(-c2n[nH]c3cc4c(cc23)CN(CC2CCCCC2)C(=O)N4)ccn1 [Compound 213] | < 500
CC(c1ccccc1)c1cc2cc3c(-c4ccncc4)n[nH]c3cc2[nH]c1=O (stereo not drawn) [Compound 326] | < 500
COc1ncc(-c2n[nH]c3cc4c(cc23)CN([C@@H]2CCCN(Cc3ccccc3)C2)C(=O)N4)cn1 [Compound 104] | < 500
Cc1cc(-c2n[nH]c3cc4c(cc23)CN(CCNCc2ccccc2)C(=O)N4)ccn1 [Compound 149] | < 500
Cc1cc(-c2n[nH]c3cc4c(cc23)CN([C@@H]2CN(CC(F)(F)F)C[C@H]2c2ccccc2)C(=O)N4)cc(C)n1 [Compound 339] | < 500
CC(c1ccccc1)c1cc2cc3c(-c4ccc(N5CCN(C)CC5)nc4)n[nH]c3cc2[nH]c1=O (stereo not drawn) [Compound 316] | < 500
Cc1cc(-c2n[nH]c3cc4c(cc23)CN([C@@H]2CN(C)C[C@H]2c2ccccc2F)C(=O)N4)cc(C)n1 (racemic) [Compound 306] | < 500
CC(c1ccccc1)c1cc2cc3c(-c4ccnc(N5CCN(C)CC5)c4)n[nH]c3cc2[nH]c1=O (stereo not drawn) [Compound 318] | < 500
Cc1cc(-c2n[nH]c3cc4[nH]c(=O)c([C@H](C)c5ccc(F)cc5)cc4cc23)ccn1 [Compound 288] | < 500
CCN1C[C@@H](N2Cc3cc4c(-c5ccnc(C)c5)n[nH]c4cc3NC2=O)[C@H](c2ccccc2)C1 (racemic) [Compound 278] | < 500
Cc1cc(-c2n[nH]c3cc4c(cc23)CN([C@@H]2CN(C(C)C)C[C@H]2c2ccccc2)C(=O)N4)ccn1 (racemic) [Compound 279] | < 500
C[C@H](c1ccccc1)c1cc2cc3c(NC4CCOCC4)n[nH]c3cc2[nH]c1=O [Compound 357] | < 500
O=C1Nc2cc3[nH]nc(-c4ccncc4)c3cc2CN1Cc1ccccc1 [Compound 1] | < 500
COc1ncc(-c2n[nH]c3cc4c(cc23)CN(Cc2cccc(Cl)c2)C(=O)N4)cn1 [Compound 68] | < 500

The remaining lines, values ahead:

IC50 [nM] | Compound
< 500 | Cc1cc(-c2n[nH]c3cc4c(cc23)CN([C@@H]2CCCN(Cc3cccs3)C2)C(=O)N4)ccn1 [Compound 254]
< 500 | Cc1cc(-c2n[nH]c3cc4c(cc23)CN([C@@H]2CCCN(Cc3ccc(F)c(F)c3)C2)C(=O)N4)ccn1 [Compound 190]
< 500 | Cc1cc(-c2n[nH]c3cc4c(cc23)CN([C@@H]2CCCN(Cc3cccc(Cl)c3)C2)C(=O)N4)ccn1 [Compound 156]
< 500 | COc1ncc(-c2n[nH]c3cc4c(cc23)CN([C@@H]2CCCN(Cc3c(F)cccc3OC)C2)C(=O)N4)cn1 [Compound 103]
< 500 | Cc1cc(-c2n[nH]c3cc4c(cc23)CN([C@H]2CN(Cc3ccccc3)CC(F)(F)C2)C(=O)N4)ccn1 [Compound 264]
< 500 | Cc1cc(-c2n[nH]c3cc4c(cc23)CN([C@@H]2CCCN(Cc3ccccc3)C2)C(=O)N4)ccn1 [Compound 63]
< 500 | COc1ncc(-c2n[nH]c3cc4c(cc23)CN([C@@H]2CCCN(Cc3ccc(F)cc3F)C2)C(=O)N4)cn1 [Compound 280]
< 500 | Cc1cc(-c2n[nH]c3cc4c(cc23)CN([C@@H]2CCCN(Cc3c(F)cccc3F)C2)C(=O)N4)ccn1 [Compound 143]
< 500 | Cc1cc(-c2n[nH]c3cc4c(cc23)CN([C@@H]2CCN(C(C)C(F)(F)F)C2)C(=O)N4)ccn1 (stereo partly drawn) [Compound 267]
< 500 | Cc1cc(-c2n[nH]c3cc4c(cc23)CN([C@@H]2CCCN(Cc3cccc(F)c3)C2)C(=O)N4)ccn1 [Compound 184]
< 500 | Cc1cc(-c2n[nH]c3cc4c(cc23)CN([C@@H]2CCCN(Cc3ccc(F)cc3)C2)C(=O)N4)ccn1 [Compound 151]
< 500 | COc1ccc(-c2n[nH]c3cc4c(cc23)CN([C@@H]2CCCN(Cc3ccc(F)cc3F)C2)C(=O)N4)cn1 [Compound 273]
< 500 | Cc1cc(-c2n[nH]c3cc4c(cc23)CN([C@@H]2CCCN(Cc3ccccc3Cl)C2)C(=O)N4)ccn1 [Compound 158]
< 500 | COc1ccc(-c2n[nH]c3cc4c(cc23)CN([C@@H]2CCCN(Cc3ccccc3)C2)C(=O)N4)cn1 [Compound 272]
< 500 | Cn1cc(-c2n[nH]c3cc4c(cc23)CN([C@@H]2CCCN(Cc3ccccc3)C2)C(=O)N4)cn1 [Compound 285]
< 500 | Cc1cc(-c2n[nH]c3cc4c(cc23)CN([C@@H]2CCCN(Cc3sccc3F)C2)C(=O)N4)ccn1 [Compound 291]
< 500 | COc1cccc(F)c1CN1CC[C@@H](N2Cc3cc4c(-c5ccnc(C)c5)n[nH]c4cc3NC2=O)C1 [Compound 162]
< 500 | Cc1cc(-c2n[nH]c3cc4c(cc23)CN([C@@H]2CCCN(Cc3cc(F)ccc3F)C2)C(=O)N4)ccn1 [Compound 187]

IC50 [nM] | Compound
< 500 | Cc1cc(-c2n[nH]c3cc4c(cc23)CN([C@@H]2CCCN(Cc3ccc(F)c(Cl)c3)C2)C(=O)N4)ccn1 [Compound 134]
< 500 | COc1cc(-c2n[nH]c3cc4c(cc23)CN([C@@H]2CCCN(Cc3ccc(F)cc3F)C2)C(=O)N4)ccn1 [Compound 271]
< 500 | Cc1cc(-c2n[nH]c3cc4c(cc23)CN(C2CCC2)C(=O)N4)ccn1 [Compound 243]
< 500 | Cc1cc(-c2n[nH]c3cc4c(cc23)CN([C@@H]2CCCN(Cc3cccc(F)c3F)C2)C(=O)N4)ccn1 [Compound 185]
< 500 | Cc1cc(-c2n[nH]c3cc4c(cc23)CN([C@@H]2CCCN(Cc3ccc(F)cc3F)C2)C(=O)N4)ccn1 [Compound 196]
< 500 | COc1cc(-c2n[nH]c3cc4c(cc23)CN([C@@H]2CCCN(Cc3ccccc3)C2)C(=O)N4)ccn1 [Compound 270]
< 500 | Cc1cc(-c2n[nH]c3cc4c(cc23)CN([C@@H]2CCCN(C(C)c3ccccc3)C2)C(=O)N4)ccn1 (stereo partly drawn) [Compound 154]
< 500 | Cc1cc(-c2n[nH]c3cc4c(cc23)CN([C@@H]2CCN(CC(F)(F)F)C2)C(=O)N4)ccn1 [Compound 214]
< 500 | COc1cccc(F)c1CN1CCC[C@@H](N2Cc3cc4c(-c5ccnc(C)c5)n[nH]c4cc3NC2=O)C1 [Compound 144]
< 500 | COc1ncc(-c2n[nH]c3cc4c(cc23)CN([C@@H]2CCCN(Cc3c(F)cccc3F)C2)C(=O)N4)cn1 [Compound 102]
< 500 | Cc1ncc(-c2n[nH]c3cc4c(cc23)CN([C@@H]2CCCN(Cc3ccc(F)cc3F)C2)C(=O)N4)cn1 [Compound 293]
< 500 | Cc1ccc(-c2n[nH]c3cc4c(cc23)CN([C@@H]2CCCN(Cc3ccccc3)C2)C(=O)N4)cn1 [Compound 275]
< 500 | [2H]c1c([2H])c([2H])c(C([2H])([2H])N2CCC[C@@H](N3Cc4cc5c(-c6ccnc(C)c6)n[nH]c5cc4NC3=O)C2)c([2H])c1[2H] [Compound 165]
< 500 | [2H]C([2H])(c1ccccc1)N1CCC[C@@H](N2Cc3cc4c(-c5ccnc(C)c5)n[nH]c4cc3NC2=O)C1 [Compound 148]
< 500 | Cc1cc(-c2n[nH]c3cc4c(cc23)CN([C@@H]2CCN(CCc3ccccc3)C2)C(=O)N4)ccn1 [Compound 153]
< 500 | COc1ncc(-c2n[nH]c3cc4c(cc23)CN([C@@H]2CCCN(Cc3ccccc3F)C2)C(=O)N4)cn1 [Compound 101]
< 500 | Cc1cc(-c2n[nH]c3cc4c(cc23)CN([C@@H]2CCCN(Cc3ccsc3)C2)C(=O)N4)ccn1 [Compound 252]
< 500 | Cc1cc(-c2n[nH]c3cc4c(cc23)CN([C@@H]2CCCN(CC(F)(F)F)C2)C(=O)N4)cc(C)n1 [Compound 244]
